Data on eight molecules can be found in patent US10196378B2, “Inhibitors of BCR-ABL mutants and use thereof” (THE REGENTS OF THE UNIVERSITY OF MICHIGAN, priority 2016, dated 2019).

Series [1] concerns chronic myelogenous leukemia. Conditions: CML patients; about 30% prior to any targeted therapy; cited from earlier work.
The subject of series [2] is parental IL-3 dependent Ba/F3 cells. The series is described as follows: cells. The note with it: Mus musculus, BaF3, read-out: GI50, Ba/F3 parental.
The next series has as its system K562. Description: Growth inhibition (GI50) in K562 CML cells. Type of series: cell-based. Conditions: Homo sapiens, K562, read-out: GI50, K562.
The subject of another series is BV-173. Description: Growth inhibition (GI50) in BV-173 CML cells. Type of series: cell-based. Conditions: Homo sapiens, BV-173, read-out: GI50, BV-173.
A further series deals with BV-173R. The series is described as follows: Growth inhibition (GI50) in BV-173R CML cells. Type of series: cell-based. Conditions: read-out: GI50, BV-173R.
The target in the next series is Tie2 (Homo sapiens (Human), UniProt Q02763). The series is described as follows: NanoSyn single-concentration kinase inhibition. Type of series: biochemical. The note with it: read-out: % inhibition at 100 nM, Tie2.
The target of a further series is FGFR3 (Homo sapiens (Human), UniProt P22607). Description: NanoSyn single-concentration kinase inhibition. Type of series: biochemical. The note with it: read-out: % inhibition at 100 nM, FGFR3.
A further series concerns the target Abl2/Arg (Homo sapiens (Human), UniProt P42684). Description: NanoSyn single-concentration kinase inhibition. Type of series: biochemical. Conditions: read-out: % inhibition at 100 nM, Abl2/Arg.
For a further series, the target named is FLT3 (Homo sapiens (Human), UniProt P36888). Description: NanoSyn single-concentration kinase inhibition. It is filed as biochemical. Conditions: read-out: % inhibition at 100 nM, FLT3.
Another series addresses Lyn-A (Homo sapiens (Human), UniProt P07948). Description: NanoSyn single-concentration kinase inhibition. Type of series: biochemical. The note with it: read-out: % inhibition at 100 nM, Lyn-A.
The target in the next series is PDGFRα (Homo sapiens (Human), UniProt P16234). Description: NanoSyn single-concentration kinase inhibition. Type of series: biochemical. The note with it: read-out: % inhibition at 100 nM, PDGFRα.
For another series, the target named is Lck (Homo sapiens (Human), UniProt P06239). Description: NanoSyn single-concentration kinase inhibition. Type of series: biochemical. Conditions: read-out: % inhibition at 100 nM, Lck.
Another series concerns the target C-Raf (Homo sapiens (Human), UniProt P04049). The series is described as follows: NanoSyn single-concentration kinase inhibition. It is filed as biochemical. The note with it: read-out: % inhibition at 100 nM, C-Raf.
The next series deals with PDGFRβ (Homo sapiens (Human), UniProt P09619). Description: NanoSyn single-concentration kinase inhibition. The note with it: read-out: % inhibition at 100 nM, PDGFRβ. Type of series: biochemical.
The next series deals with VEGFR1 (FLT1) (Homo sapiens (Human), UniProt P17948). Description: NanoSyn single-concentration kinase inhibition. It is filed as biochemical.
A further series has as its target MAP4K5 (Homo sapiens (Human), UniProt Q9Y4K4). The series is described as follows: NanoSyn single-concentration kinase inhibition. It is filed as biochemical. Conditions: read-out: % inhibition at 100 nM, MAP4K5.
For the next series, the target named is FGFR1 (Homo sapiens (Human), UniProt P11362). The series is described as follows: NanoSyn single-concentration kinase inhibition. It is filed as biochemical. The note with it: read-out: % inhibition at 100 nM, FGFR1.
The next series has as its target EPH-A3 (Homo sapiens (Human), UniProt P29320). Description: NanoSyn single-concentration kinase inhibition. The note with it: read-out: % inhibition at 100 nM, EPH-A3. Type of series: biochemical.
The next series addresses Csk (Homo sapiens (Human), UniProt P41240). Description: NanoSyn single-concentration kinase inhibition. It is filed as biochemical. The note with it: read-out: % inhibition at 100 nM, Csk.
For another series, the target named is VEGFR3 (FLT4) (Homo sapiens (Human), UniProt P35916). Description: NanoSyn single-concentration kinase inhibition. It is filed as biochemical. The note with it: read-out: % inhibition at 100 nM, VEGFR3 (FLT4).
Series [3] addresses T1, VEGFR2 (KDR) (Homo sapiens (Human), UniProt P35968).
The conditions of series [4]: phase I trial, cited from earlier work.
Series [5] concerns the target T1, VEGFR2 (KDR). Description: biochemical. Conditions: read-out: % inhibition at 100 nM, VEGFR2 (KDR), 100 nM.

T1 sequence (P35968 20-1356, species assumed): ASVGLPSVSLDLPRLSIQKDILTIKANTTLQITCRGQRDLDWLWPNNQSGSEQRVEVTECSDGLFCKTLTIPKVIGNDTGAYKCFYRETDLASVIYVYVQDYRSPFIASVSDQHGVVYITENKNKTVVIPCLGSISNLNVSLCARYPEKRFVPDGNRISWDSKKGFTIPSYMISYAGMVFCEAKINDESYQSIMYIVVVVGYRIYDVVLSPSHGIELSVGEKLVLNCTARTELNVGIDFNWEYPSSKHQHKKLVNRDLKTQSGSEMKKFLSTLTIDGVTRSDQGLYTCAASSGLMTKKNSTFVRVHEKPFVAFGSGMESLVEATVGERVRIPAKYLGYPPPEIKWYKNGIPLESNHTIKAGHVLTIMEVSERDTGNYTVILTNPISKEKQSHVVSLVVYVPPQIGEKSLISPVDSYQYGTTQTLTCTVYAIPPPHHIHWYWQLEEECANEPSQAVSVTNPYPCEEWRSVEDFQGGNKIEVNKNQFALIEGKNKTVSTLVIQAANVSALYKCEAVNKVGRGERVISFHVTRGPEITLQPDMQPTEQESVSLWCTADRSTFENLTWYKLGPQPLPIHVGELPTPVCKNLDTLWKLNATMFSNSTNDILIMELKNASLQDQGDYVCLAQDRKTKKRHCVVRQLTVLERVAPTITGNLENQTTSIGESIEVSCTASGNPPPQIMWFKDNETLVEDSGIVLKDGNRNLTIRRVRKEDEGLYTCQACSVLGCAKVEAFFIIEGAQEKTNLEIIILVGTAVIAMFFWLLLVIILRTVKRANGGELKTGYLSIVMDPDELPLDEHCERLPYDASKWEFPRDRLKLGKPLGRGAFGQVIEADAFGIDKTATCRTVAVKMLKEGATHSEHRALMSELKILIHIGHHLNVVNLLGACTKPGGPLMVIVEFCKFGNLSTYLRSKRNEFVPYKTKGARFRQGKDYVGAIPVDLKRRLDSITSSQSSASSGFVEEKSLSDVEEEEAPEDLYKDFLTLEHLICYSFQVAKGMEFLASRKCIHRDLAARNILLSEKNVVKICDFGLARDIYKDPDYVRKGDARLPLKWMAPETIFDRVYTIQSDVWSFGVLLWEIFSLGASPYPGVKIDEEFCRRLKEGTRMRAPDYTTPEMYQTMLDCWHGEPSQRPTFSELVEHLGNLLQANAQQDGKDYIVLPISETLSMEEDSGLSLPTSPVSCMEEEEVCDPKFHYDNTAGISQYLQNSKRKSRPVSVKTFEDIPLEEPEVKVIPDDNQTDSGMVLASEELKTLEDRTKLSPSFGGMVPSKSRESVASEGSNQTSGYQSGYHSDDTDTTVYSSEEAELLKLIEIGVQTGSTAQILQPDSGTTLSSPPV
Chain of VEGFR1 (FLT1) (P17948 27-1338, species assumed): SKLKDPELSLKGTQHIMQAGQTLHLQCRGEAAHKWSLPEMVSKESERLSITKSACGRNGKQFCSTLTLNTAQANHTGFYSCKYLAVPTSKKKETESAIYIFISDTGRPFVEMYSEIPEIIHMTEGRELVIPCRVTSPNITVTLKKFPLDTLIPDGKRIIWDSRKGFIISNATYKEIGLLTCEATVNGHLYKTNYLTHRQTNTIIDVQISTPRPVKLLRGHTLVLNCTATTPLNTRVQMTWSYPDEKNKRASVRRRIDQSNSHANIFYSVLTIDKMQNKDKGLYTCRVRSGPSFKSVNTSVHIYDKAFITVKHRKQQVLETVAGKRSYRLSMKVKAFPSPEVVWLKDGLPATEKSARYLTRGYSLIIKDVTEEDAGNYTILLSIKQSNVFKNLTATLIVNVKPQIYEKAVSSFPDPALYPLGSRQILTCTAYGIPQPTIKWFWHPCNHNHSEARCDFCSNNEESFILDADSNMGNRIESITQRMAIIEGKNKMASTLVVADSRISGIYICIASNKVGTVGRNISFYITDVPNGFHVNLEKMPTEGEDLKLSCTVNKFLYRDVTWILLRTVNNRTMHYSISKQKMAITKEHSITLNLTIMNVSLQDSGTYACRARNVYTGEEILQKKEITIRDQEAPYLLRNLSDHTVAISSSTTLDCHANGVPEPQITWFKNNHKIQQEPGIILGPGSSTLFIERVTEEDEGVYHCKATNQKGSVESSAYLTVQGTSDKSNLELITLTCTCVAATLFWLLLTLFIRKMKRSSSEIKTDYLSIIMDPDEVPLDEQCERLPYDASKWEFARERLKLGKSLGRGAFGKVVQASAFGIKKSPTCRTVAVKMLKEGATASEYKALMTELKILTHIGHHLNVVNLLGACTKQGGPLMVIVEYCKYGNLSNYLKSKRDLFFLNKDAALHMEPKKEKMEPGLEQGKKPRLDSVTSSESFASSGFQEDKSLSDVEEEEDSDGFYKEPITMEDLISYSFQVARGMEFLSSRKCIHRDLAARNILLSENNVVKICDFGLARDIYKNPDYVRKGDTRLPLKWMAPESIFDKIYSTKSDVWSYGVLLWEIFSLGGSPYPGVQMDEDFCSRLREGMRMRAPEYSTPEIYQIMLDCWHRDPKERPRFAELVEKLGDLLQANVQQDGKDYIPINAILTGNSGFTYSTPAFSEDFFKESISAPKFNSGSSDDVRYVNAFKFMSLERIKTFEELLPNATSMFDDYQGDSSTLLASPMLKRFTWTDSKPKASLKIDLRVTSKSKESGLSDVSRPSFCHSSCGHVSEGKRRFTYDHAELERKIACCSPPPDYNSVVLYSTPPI
Chain of MAP4K5 (Q9Y4K4 whole entry, species assumed): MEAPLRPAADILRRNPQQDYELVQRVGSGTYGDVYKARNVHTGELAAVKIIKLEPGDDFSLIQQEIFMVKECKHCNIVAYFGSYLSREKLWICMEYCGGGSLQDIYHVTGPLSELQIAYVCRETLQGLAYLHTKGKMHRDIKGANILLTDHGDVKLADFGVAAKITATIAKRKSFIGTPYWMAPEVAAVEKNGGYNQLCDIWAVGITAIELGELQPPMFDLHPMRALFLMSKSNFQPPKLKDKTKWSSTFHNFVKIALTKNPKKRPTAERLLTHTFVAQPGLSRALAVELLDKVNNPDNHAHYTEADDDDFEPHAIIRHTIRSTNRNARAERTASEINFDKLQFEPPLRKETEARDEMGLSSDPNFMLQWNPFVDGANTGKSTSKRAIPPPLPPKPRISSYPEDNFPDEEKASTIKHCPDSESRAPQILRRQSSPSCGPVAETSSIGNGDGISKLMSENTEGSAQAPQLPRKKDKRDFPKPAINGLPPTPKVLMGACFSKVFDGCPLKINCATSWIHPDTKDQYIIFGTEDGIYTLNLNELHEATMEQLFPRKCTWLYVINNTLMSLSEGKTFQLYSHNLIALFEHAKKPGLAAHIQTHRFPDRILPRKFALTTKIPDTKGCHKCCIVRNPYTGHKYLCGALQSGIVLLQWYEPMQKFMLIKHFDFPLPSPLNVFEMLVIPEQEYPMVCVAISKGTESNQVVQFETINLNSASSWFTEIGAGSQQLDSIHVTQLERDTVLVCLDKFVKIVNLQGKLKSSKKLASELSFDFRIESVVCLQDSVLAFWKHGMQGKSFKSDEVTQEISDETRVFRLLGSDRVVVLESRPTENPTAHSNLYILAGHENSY
Chain of VEGFR3 (FLT4) (P35916 25-1363, species assumed): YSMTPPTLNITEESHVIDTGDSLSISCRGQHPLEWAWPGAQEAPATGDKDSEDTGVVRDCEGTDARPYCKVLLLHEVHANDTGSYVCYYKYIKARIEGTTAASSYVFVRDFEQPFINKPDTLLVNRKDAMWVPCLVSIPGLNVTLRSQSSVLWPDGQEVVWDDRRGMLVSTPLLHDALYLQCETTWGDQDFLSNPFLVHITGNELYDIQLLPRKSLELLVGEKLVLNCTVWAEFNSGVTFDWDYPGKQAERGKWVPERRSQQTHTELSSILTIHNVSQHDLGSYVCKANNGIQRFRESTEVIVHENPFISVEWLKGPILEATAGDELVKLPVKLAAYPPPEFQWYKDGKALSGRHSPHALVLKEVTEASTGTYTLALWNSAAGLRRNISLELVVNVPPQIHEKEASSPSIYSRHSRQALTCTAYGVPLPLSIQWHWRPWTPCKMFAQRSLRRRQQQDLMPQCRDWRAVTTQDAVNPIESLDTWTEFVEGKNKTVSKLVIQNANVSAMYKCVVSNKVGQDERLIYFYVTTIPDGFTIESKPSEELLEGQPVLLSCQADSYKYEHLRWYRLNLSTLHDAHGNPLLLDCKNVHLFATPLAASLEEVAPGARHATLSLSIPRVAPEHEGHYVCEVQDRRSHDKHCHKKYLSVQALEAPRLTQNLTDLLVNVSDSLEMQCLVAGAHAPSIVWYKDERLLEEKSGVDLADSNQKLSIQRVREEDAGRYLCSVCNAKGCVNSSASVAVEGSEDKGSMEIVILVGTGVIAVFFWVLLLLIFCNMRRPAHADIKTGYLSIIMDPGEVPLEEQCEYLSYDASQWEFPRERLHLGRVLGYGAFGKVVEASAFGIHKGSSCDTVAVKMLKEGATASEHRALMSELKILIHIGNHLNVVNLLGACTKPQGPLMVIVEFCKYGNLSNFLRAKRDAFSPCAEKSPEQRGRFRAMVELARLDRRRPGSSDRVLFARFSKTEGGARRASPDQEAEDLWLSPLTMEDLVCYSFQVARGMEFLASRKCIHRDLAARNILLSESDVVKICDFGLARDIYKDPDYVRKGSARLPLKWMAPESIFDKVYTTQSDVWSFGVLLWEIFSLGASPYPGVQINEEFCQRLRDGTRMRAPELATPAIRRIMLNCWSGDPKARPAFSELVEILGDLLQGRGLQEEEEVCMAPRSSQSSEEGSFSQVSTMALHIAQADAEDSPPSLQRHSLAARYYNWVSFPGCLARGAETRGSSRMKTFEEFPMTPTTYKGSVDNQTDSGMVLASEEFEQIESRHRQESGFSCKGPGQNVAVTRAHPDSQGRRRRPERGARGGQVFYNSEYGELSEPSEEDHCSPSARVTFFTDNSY

`Cc1ccc(NC(=O)c2ccc(CN3CCN(C)CC3)cc2)cc1Nc1nccc(-c2cccnc2)n1` [imatinib]: the “5-year overall survival rate” value in series [1] was 90%.

With `CN1CCN(Cc2ccc(NC(=O)Nc3ccc(Oc4ccc5cccnc5c4)cc3)cc2C(F)(F)F)CC1` [Compound C06], the GI50 in series [2] amounted to 5.22 µM.

`CN1CCN(Cc2ccc(NC(=O)Nc3ccc(Oc4ccc5ncncc5c4)cc3)cc2C(F)(F)F)CC1` [Compound C03]: the GI50 in series [2] is 5.58 µM.

In the case of `CN1CCN(Cc2ccc(NC(=O)Nc3ccc(Nc4ccc5ncccc5c4)cc3)cc2C(F)(F)F)CC1` [Compound C04], the GI50 in series [2] worked out at 5.12 µM.

In the case of `CN1CCN(Cc2ccc(NC(=O)Nc3ccc(Oc4ccc5ncccc5c4)cc3)cc2C(F)(F)F)CC1` [Compound C05], the GI50 in [2] was found to be 5.3 µM.

For `CN1CCN(Cc2ccc(NC(=O)Nc3ccc(Oc4ccncc4)cc3)cc2C(F)(F)F)CC1` [Compound C02], the GI50 in series [2] amounted to 5 µM.

On to `Cc1ccc(C(=O)Nc2ccc(CN3CCN(C)CC3)c(C(F)(F)F)c2)cc1C#Cc1cnc2cccnn12` [ponatinib], for which the GI50 in the series on K562 worked out at 0.0025 µM; with BV-173 it was 0.006 µM; in the series on BV-173R it was 0.015 µM. The inhibition at 0.1 µM at Tie2 worked out at 95%; on FGFR3 it was 91%; on Abl2/Arg, 99%; at FLT3, 95%; on Lyn-A, 99%; at PDGFRα, 98%. For the same molecule, the inhibition at 0.1 µM on Lck was determined as 99%; at C-Raf, 118%; on PDGFRβ, 108%; on VEGFR1 (FLT1) (read-out: % inhibition at 100 nM, VEGFR1 (FLT1), 100 nM), 100%; on MAP4K5 it was 102%; at FGFR1, 102%. The inhibition at 0.1 µM at EPH-A3 came to 101%; on Csk, 100%; on VEGFR3 (FLT4) it was 100%; at VEGFR2 (KDR) [5], 100%. On VEGFR1 (FLT1) (100 nM), the % inhibition (as a rule, the drop in the measured response relative to a control, in per cent) at 100 nM, VEGFR1 (FLT1) turned out to be 107%. Also, the “% inhibition at 100 nM, VEGFR2 (KDR)” value on VEGFR2 (KDR) [3] is 102%. For the same molecule, the “patients with serious vascular AEs” value in series [4] (median follow-up of 2.7 years) is reported as 48%. For the same molecule, the “patients who developed arterial or venous thrombosis and occlusions” value in series [4] is listed as “Twenty-seven”. The “patients with heart failure, including fatalities” value in series [4] is 8%.

With `CNC(=O)c1cc(Oc2ccc(NC(=O)Nc3ccc(CN4CCN(C)CC4)c(C(F)(F)F)c3)cc2)ccn1` [Compound C01], the GI50 in series [2] stood at 4.84 µM.
